From the CheMixHub viscosity set
± gives the uncertainty stated by the source.

Test: xn = mol fraction of the nth substance listed

`Cc1ccccn1` + CCC(C)=O showed a viscosity (303.15 K, 101.3 kPa, x1 = 0.1) of 0.4017 ± 0.0086 mPa·s, a viscosity (303.15 K, 101.3 kPa, x1 = 0.2) of 0.4296 ± 0.0092 mPa·s and a viscosity (303.15 K, 101.3 kPa, x1 = 0.3) of 0.4565 ± 0.0099 mPa·s. The viscosity (303.15 K, 101.3 kPa, x1 = 0.4) was 0.4877 ± 0.011 mPa·s, the viscosity (303.15 K, 101.3 kPa, x1 = 0.5) was 0.5193 ± 0.011 mPa·s and the viscosity (303.15 K, 101.3 kPa, x1 = 0.6) was 0.5612 ± 0.013 mPa·s. The viscosity (303.15 K, 101.3 kPa, x1 = 0.7) was 0.5978 ± 0.013 mPa·s, the viscosity (303.15 K, 101.3 kPa, x1 = 0.7999) was 0.6425 ± 0.015 mPa·s and the viscosity (303.15 K, 101.3 kPa, x1 = 0.9) was 0.6942 ± 0.016 mPa·s. The viscosity (313.15 K, 101.3 kPa, x1 = 0.1) was 0.3667 ± 0.0079 mPa·s, the viscosity (313.15 K, 101.3 kPa, x1 = 0.2) was 0.3917 ± 0.0084 mPa·s and the viscosity (313.15 K, 101.3 kPa, x1 = 0.3) was 0.416 ± 0.009 mPa·s. It also gave a viscosity (313.15 K, 101.3 kPa, x1 = 0.4) of 0.4445 ± 0.0097 mPa·s, a viscosity (313.15 K, 101.3 kPa, x1 = 0.5) of 0.4702 ± 0.01 mPa·s and a viscosity (313.15 K, 101.3 kPa, x1 = 0.6) of 0.5038 ± 0.011 mPa·s. The viscosity (313.15 K, 101.3 kPa, x1 = 0.7) was 0.5356 ± 0.012 mPa·s, the viscosity (313.15 K, 101.3 kPa, x1 = 0.7999) was 0.5718 ± 0.013 mPa·s and the viscosity (313.15 K, 101.3 kPa, x1 = 0.9) was 0.6118 ± 0.014 mPa·s. The viscosity (323.15 K, 101.3 kPa, x1 = 0.1) was 0.3457 ± 0.0074 mPa·s, the viscosity (323.15 K, 101.3 kPa, x1 = 0.2) was 0.3572 ± 0.0077 mPa·s and the viscosity (323.15 K, 101.3 kPa, x1 = 0.3) was 0.3813 ± 0.0083 mPa·s. The viscosity (323.15 K, 101.3 kPa, x1 = 0.4) was 0.4009 ± 0.0088 mPa·s, the viscosity (323.15 K, 101.3 kPa, x1 = 0.5) was 0.4264 ± 0.0094 mPa·s and the viscosity (323.15 K, 101.3 kPa, x1 = 0.6) was 0.4523 ± 0.01 mPa·s. It also gave a viscosity (323.15 K, 101.3 kPa, x1 = 0.7) of 0.4827 ± 0.011 mPa·s, a viscosity (323.15 K, 101.3 kPa, x1 = 0.7999) of 0.5104 ± 0.012 mPa·s and a viscosity (323.15 K, 101.3 kPa, x1 = 0.9) of 0.5528 ± 0.013 mPa·s.
In the case of `ClC=C(Cl)Cl` + CCC(C)=O, the viscosity (298.15 K, 101.33 kPa, x1 = 0.1997) is reported as 0.507 ± 0.005 mPa·s, the viscosity (298.15 K, 101.33 kPa, x1 = 0.4564) is reported as 0.557 ± 0.006 mPa·s and the viscosity (298.15 K, 101.33 kPa, x1 = 0.5979) is reported as 0.592 ± 0.007 mPa·s. It also gave a viscosity (298.15 K, 101.33 kPa, x1 = 0.7166) of 0.612 ± 0.007 mPa·s, a viscosity (298.15 K, 101.33 kPa, x1 = 0.7989) of 0.622 ± 0.008 mPa·s and a viscosity (298.15 K, 101.33 kPa, x1 = 0.891) of 0.63 ± 0.008 mPa·s. For the same compound, the viscosity (308.15 K, 101.33 kPa, x1 = 0.1037) was 0.447 ± 0.005 mPa·s, the viscosity (308.15 K, 101.33 kPa, x1 = 0.1997) was 0.467 ± 0.005 mPa·s and the viscosity (308.15 K, 101.33 kPa, x1 = 0.3082) was 0.491 ± 0.005 mPa·s. It also gave a viscosity (308.15 K, 101.33 kPa, x1 = 0.3915) of 0.506 ± 0.005 mPa·s, a viscosity (308.15 K, 101.33 kPa, x1 = 0.4564) of 0.518 ± 0.006 mPa·s and a viscosity (308.15 K, 101.33 kPa, x1 = 0.5979) of 0.543 ± 0.006 mPa·s. For the same compound, the viscosity (308.15 K, 101.33 kPa, x1 = 0.7166) was 0.559 ± 0.007 mPa·s, the viscosity (308.15 K, 101.33 kPa, x1 = 0.7989) was 0.564 ± 0.007 mPa·s and the viscosity (308.15 K, 101.33 kPa, x1 = 0.891) was 0.575 ± 0.007 mPa·s. The viscosity (318.15 K, 101.33 kPa, x1 = 0.1037) was 0.413 ± 0.004 mPa·s, the viscosity (318.15 K, 101.33 kPa, x1 = 0.1997) was 0.434 ± 0.005 mPa·s and the viscosity (318.15 K, 101.33 kPa, x1 = 0.3082) was 0.456 ± 0.005 mPa·s. The viscosity (318.15 K, 101.33 kPa, x1 = 0.3915) was 0.471 ± 0.005 mPa·s, the viscosity (318.15 K, 101.33 kPa, x1 = 0.4564) was 0.481 ± 0.005 mPa·s and the viscosity (318.15 K, 101.33 kPa, x1 = 0.5979) was 0.504 ± 0.006 mPa·s. For the same compound, the viscosity (318.15 K, 101.33 kPa, x1 = 0.7166) was 0.521 ± 0.006 mPa·s, the viscosity (318.15 K, 101.33 kPa, x1 = 0.7989) was 0.531 ± 0.006 mPa·s and the viscosity (318.15 K, 101.33 kPa, x1 = 0.891) was 0.541 ± 0.007 mPa·s.
Work on `ClC=C(Cl)Cl` + CCC(C)O yielded a viscosity (303.15 K, 101.3 kPa, x1 = 0.1104) of 1.721 ± 0.022 mPa·s, a viscosity (303.15 K, 101.3 kPa, x1 = 0.213) of 1.3 ± 0.017 mPa·s and a viscosity (303.15 K, 101.3 kPa, x1 = 0.312) of 1.042 ± 0.014 mPa·s. For the same compound, the viscosity (303.15 K, 101.3 kPa, x1 = 0.4086) was 0.881 ± 0.012 mPa·s, the viscosity (303.15 K, 101.3 kPa, x1 = 0.5218) was 0.761 ± 0.011 mPa·s and the viscosity (303.15 K, 101.3 kPa, x1 = 0.6132) was 0.695 ± 0.01 mPa·s. The viscosity (303.15 K, 101.3 kPa, x1 = 0.7094) was 0.647 ± 0.009 mPa·s, the viscosity (303.15 K, 101.3 kPa, x1 = 0.8124) was 0.606 ± 0.009 mPa·s and the viscosity (303.15 K, 101.3 kPa, x1 = 0.9012) was 0.57 ± 0.008 mPa·s.
For `NC1CCCCC1` + CCC(C)O, the viscosity (298.15 K, 101 kPa, x1 = 0.0767) was 2.804 ± 0.032 mPa·s, the viscosity (298.15 K, 101 kPa, x1 = 0.1574) was 2.619 ± 0.03 mPa·s and the viscosity (298.15 K, 101 kPa, x1 = 0.2426) was 2.472 ± 0.029 mPa·s. For the same compound, the viscosity (298.15 K, 101 kPa, x1 = 0.3325) was 2.369 ± 0.027 mPa·s, the viscosity (298.15 K, 101 kPa, x1 = 0.4277) was 2.302 ± 0.027 mPa·s and the viscosity (298.15 K, 101 kPa, x1 = 0.5285) was 2.25 ± 0.026 mPa·s. For the same compound, the viscosity (298.15 K, 101 kPa, x1 = 0.6355) was 2.224 ± 0.026 mPa·s, the viscosity (298.15 K, 101 kPa, x1 = 0.7493) was 2.148 ± 0.025 mPa·s and the viscosity (298.15 K, 101 kPa, x1 = 0.8706) was 2.002 ± 0.023 mPa·s.
`CC(O)CO` (stereo unspecified) + CCCCCCCO gave a viscosity (303.15 K, 101 kPa, x2 = 0.6097) of 7.655 ± 0.1 mPa·s.
Work on `ClC=C(Cl)Cl` + CCCCCCCO yielded a viscosity (303.15 K, 101 kPa, x2 = 0.1161) of 0.734 ± 0.018 mPa·s, a viscosity (303.15 K, 101 kPa, x2 = 0.2045) of 0.863 ± 0.019 mPa·s and a viscosity (303.15 K, 101 kPa, x2 = 0.3792) of 1.166 ± 0.022 mPa·s. The viscosity (303.15 K, 101 kPa, x2 = 0.4884) was 1.459 ± 0.025 mPa·s, the viscosity (303.15 K, 101 kPa, x2 = 0.5714) was 1.767 ± 0.027 mPa·s and the viscosity (303.15 K, 101 kPa, x2 = 0.6298) was 2.03 ± 0.029 mPa·s. It also gave a viscosity (303.15 K, 101 kPa, x2 = 0.737) of 2.643 ± 0.033 mPa·s, a viscosity (303.15 K, 101 kPa, x2 = 0.8161) of 3.197 ± 0.036 mPa·s and a viscosity (303.15 K, 101 kPa, x2 = 0.9242) of 4.119 ± 0.04 mPa·s.
Compound `CC(O)CO` (stereo unspecified) + CCCCCCO has a viscosity (303.15 K, 101 kPa, x2 = 0.6309) of 6.725 ± 0.094 mPa·s and a viscosity (308.15 K, 101 kPa, x2 = 0.0771) of 20.05 ± 0.24 mPa·s.
Work on `O=C1CCCC1` + CCCCCCO yielded a viscosity (303.15 K, 101 kPa, x1 = 0.0985) of 2.896 ± 0.026 mPa·s, a viscosity (303.15 K, 101 kPa, x1 = 0.2605) of 2.093 ± 0.019 mPa·s and a viscosity (303.15 K, 101 kPa, x1 = 0.4224) of 1.641 ± 0.015 mPa·s. It also gave a viscosity (303.15 K, 101 kPa, x1 = 0.5807) of 1.333 ± 0.012 mPa·s, a viscosity (303.15 K, 101 kPa, x1 = 0.7406) of 1.132 ± 0.01 mPa·s and a viscosity (303.15 K, 101 kPa, x1 = 0.9025) of 1.016 ± 0.009 mPa·s.
For `O=C1CCCC1` + CCCCCO, the viscosity (303.15 K, 101 kPa, x1 = 0.0989) was 2.258 ± 0.02 mPa·s, the viscosity (303.15 K, 101 kPa, x1 = 0.2598) was 1.682 ± 0.015 mPa·s and the viscosity (303.15 K, 101 kPa, x1 = 0.4202) was 1.353 ± 0.012 mPa·s. For the same compound, the viscosity (303.15 K, 101 kPa, x1 = 0.5803) was 1.179 ± 0.011 mPa·s, the viscosity (303.15 K, 101 kPa, x1 = 0.7374) was 1.057 ± 0.01 mPa·s and the viscosity (303.15 K, 101 kPa, x1 = 0.9009) was 0.98 ± 0.009 mPa·s.
`O=C1CCCC1` + CCCCN showed a viscosity (303.15 K, 101.33 kPa, x2 = 0.0957) of 1.45 ± 0.04 mPa·s, a viscosity (303.15 K, 101.33 kPa, x2 = 0.2075) of 1.902 ± 0.052 mPa·s and a viscosity (303.15 K, 101.33 kPa, x2 = 0.3126) of 2.204 ± 0.06 mPa·s. For the same compound, the viscosity (303.15 K, 101.33 kPa, x2 = 0.4731) was 2.34 ± 0.064 mPa·s, the viscosity (303.15 K, 101.33 kPa, x2 = 0.5364) was 2.252 ± 0.062 mPa·s and the viscosity (303.15 K, 101.33 kPa, x2 = 0.6816) was 1.904 ± 0.052 mPa·s. For the same compound, the viscosity (303.15 K, 101.33 kPa, x2 = 0.7758) was 1.552 ± 0.043 mPa·s and the viscosity (303.15 K, 101.33 kPa, x2 = 0.8894) was 1.073 ± 0.03 mPa·s.
